# Activity calls are given as the source filed them. The rule behind the calls is not given here.
# Tested on: rodent carcinogenicity bioassays, tumor incidence
# Experiment: CCRIS carcinogenicity studies
# Procedure, shortened: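 Archive of carcinogenicity, mutagenicity, tumor promotion and tumor inhibition results drawn from journals, NCI reports and other sources, expert-reviewed; covers 1985-2011 and is no longer updated.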
# [1] = Species: MOUSE, Route: INTRAPERITONEAL, Tumor Site: Type of Lesion: LUNG
structure (smiles),measurement,setting,value
Cc1cc2ncccc2c2nc(N)n(C)c12,carcinogen call,"Species: MOUSE, Strain/Sex: C57BL/6N/FEMALE, Route: ORAL, Dose: 0, 300 PPM IN DIET FOR 92 WK (STUDY DURATION: 92 WK), Tumor Site: Type of Lesion: COLON: ADENOCARCINOMA, CECUM: ADENOCARCINOMA, LIVER: HEPATOCELLULAR ADENOMA, HEPATOCELLULAR CARCINOMA, OR FIBROSARCOMA, Tumor Site: Type of Lesion: COLON: ADENOCARCINOMA, CECUM: ADENOCARCINOMA, LIVER: HEPATOCELLULAR ADENOMA, HEPATOCELLULAR CARCINOMA, OR FIBROSARCOMA",active; positive
same,carcinogen call,"Species: MOUSE, Strain/Sex: CDF1/FEMALE, Route: ORAL, Dose: 0, 0.04% IN THE DIET FOR STUDY DURATION (STUDY DURATION: LIFESPAN), Tumor Site: Type of Lesion: FORESTOMACH: PAPILLOMA, SQUAMOUS CELL CARCINOMA, LIVER: HEPATOCELLULAR ADENOMA, HEPATOCELLULAR CARCINOMA",active; positive
same,carcinogen call,"Species: MOUSE, Strain/Sex: CDF1/MALE, Route: ORAL, Dose: 0, 0.04% IN THE DIET FOR STUDY DURATION (STUDY DURATION: LIFESPAN), Tumor Site: Type of Lesion: FORESTOMACH: PAPILLOMA, SQUAMOUS CELL CARCINOMA, LIVER: CHOLANGIOCARCINOMA",active; positive
same,carcinogen call,"Species: RAT, Strain/Sex: F344/MALE, Route: ORAL, Dose: 0, 0.03% IN DIET (DAILY INTAKE: 3.8 MG) FOR 286 D (STUDY DURATION: 286 D), Tumor Site: Type of Lesion: ZYMBAL GLAND: SQUAMOUS CELL CARCINOMA, ORAL CAVITY: SQUAMOUS CELL CARCINOMA OR SEBACEOUS SQUAMOUS CELL CARCINOMA, COLON:, Tumor Site: Type of Lesion: ZYMBAL GLAND: SQUAMOUS CELL CARCINOMA, ORAL CAVITY: SQUAMOUS CELL CARCINOMA OR SEBACEOUS SQUAMOUS CELL CARCINOMA, COLON:",active; positive
same,carcinogen call,"Species: RAT, Strain/Sex: F344/MALE, Route: ORAL, Dose: 0, 0.03% IN DIET (DAILY INTAKE: 5.6 MG) FOR 286 D (STUDY DURATION: 286 D), Tumor Site: Type of Lesion: ZYMBAL GLAND: SQUAMOUS CELL CARCINOMA, ORAL CAVITY: SQUAMOUS CELL CARCINOMA OR SEBACEOUS SQUAMOUS CELL CARCINOMA, COLON:, Tumor Site: Type of Lesion: ZYMBAL GLAND: SQUAMOUS CELL CARCINOMA, ORAL CAVITY: SQUAMOUS CELL CARCINOMA OR SEBACEOUS SQUAMOUS CELL CARCINOMA, COLON:",active; positive
same,carcinogen call,"Species: RAT, Strain/Sex: WISTAR/MALE, Route: INTRAGASTRIC, Dose: 0, 10 MG/KG IN ACIDIFIED WATER 1/D FOR 2 WK (STUDY DURATION: 58 WK), Tumor Site: Type of Lesion: ZYMBAL GLAND: CARCINOMA",active; positive
NS(=O)(=O)c1cc(C(=O)O)c(NCc2ccco2)cc1Cl,carcinogen call,"Species: MOUSE, Strain/Sex: B6C3F1/FEMALE, Route: ORAL, Dose: 0, 700, 1400 PPM IN FEED FOR 104 WK (STUDY DURATION: 107 WK), Dose: 0, 700, 1400 PPM IN FEED FOR 104 WK (STUDY DURATION: 107 WK), Tumor Site: Type of Lesion: MAMMARY GLAND: MIXED TUMOR, MALIGNANT, MAMMARY GLAND: MIXED TUMOR, MALIGNANT OR ACINAR CELL CARCINOMA",active; positive
same,carcinogen call,"Species: MOUSE, Strain/Sex: B6C3F1/MALE, Route: ORAL, Dose: 0, 700, 1400 PPM IN FEED FOR 104 WK (STUDY DURATION: 107 WK), Dose: 0, 700, 1400 PPM IN FEED FOR 104 WK (STUDY DURATION: 107 WK)",inactive; negative
same,carcinogen call,"Species: RAT, Strain/Sex: F344/FEMALE, Route: ORAL, Dose: 0, 350, 700 PPM IN FEED FOR 103 WK (STUDY DURATION: 106 WK), Dose: 0, 350, 700 PPM IN FEED FOR 103 WK (STUDY DURATION: 106 WK)",inactive; negative
same,carcinogen call,"Species: RAT, Strain/Sex: F344/MALE, Route: ORAL, Dose: 0, 350, 700 PPM IN FEED FOR 103 WK (STUDY DURATION: 106 WK), Dose: 0, 350, 700 PPM IN FEED FOR 103 WK (STUDY DURATION: 106 WK), Tumor Site: Type of Lesion: KIDNEY: RENAL TUBULE CELL ADENOMA OR ADENOCARCINOMA, BRAIN: MENINGIOMA",equivocal
O[C@@H]1C=Cc2c(cc3ccc4cccc5ccc2c3c45)[C@H]1O,carcinogen call,"Species: FISH, Strain/Sex: RAINBOW TROUT/MALE,FEMALE, Route: INJECTION, Dose: 0, 0.5, 2, 5 UG INJECTED INTO NEWLY HATCHED SAC-FRY (STUDY DURATION: 9 MO), Dose: 0, 0.5, 2, 5 UG INJECTED INTO NEWLY HATCHED SAC-FRY (STUDY DURATION: 9 MO), Tumor Site: Type of Lesion: LIVER: TUMOR",active; positive
COCCOC1=C(N2CC2)C(=O)C(OCCOC)=C(N2CC2)C1=O,carcinogen call,[1],active; positive
C1OC1C1CO1 (stereo not drawn),carcinogen call,"Species: MOUSE, Route: DERMAL, Tumor Site: Type of Lesion: INTEGUMENTARY SYSTEM (SKIN)",active; positive
same,carcinogen call,[1],active; positive
same,carcinogen call,"Species: MOUSE, Route: SUBCUTANEOUS, Tumor Site: Type of Lesion: INJECTION SITE",active; positive
same,carcinogen call,"Species: MOUSE, Strain/Sex: B6C3F1/FEMALE, Route: INHALATION, Dose: 0, 2.5, 5.0 PPM 6 HR/D 5 D/WK FOR 6 WK (STUDY DURATION: 18 MONTHS), Dose: 0, 2.5, 5.0 PPM 6 HR/D 5 D/WK FOR 6 WK (STUDY DURATION: 18 MONTHS), Tumor Site: Type of Lesion: HARDERIAN GLAND: TUMOR",active; positive
same,carcinogen call,"Species: RAT, Route: SUBCUTANEOUS, Tumor Site: Type of Lesion: INJECTION SITE",active; positive
same,carcinogen call,"Species: RAT, Strain/Sex: SPRAGUE-DAWLEY/FEMALE, Route: INHALATION, Dose: 0, 2.5, 5.0 PPM 6 HR/D 5 D/WK FOR 6 WK (STUDY DURATION: 18 MONTHS), Dose: 0, 2.5, 5.0 PPM 6 HR/D 5 D/WK FOR 6 WK (STUDY DURATION: 18 MONTHS), Tumor Site: Type of Lesion: NASAL MUCOSA: TUMOR",active; positive
CCC(Br)(CC)C(=O)NC(N)=O,carcinogen call,"Species: MOUSE, Strain/Sex: B6C3F1/FEMALE, Route: ORAL, Dose: 0, 1250, 2500 PPM IN DIET, Dose: 0, 1250, 2500 PPM IN DIET",inactive; negative
same,carcinogen call,"Species: MOUSE, Strain/Sex: B6C3F1/MALE, Route: ORAL, Dose: 0, 1250, 2500 PPM IN DIET, Dose: 0, 1250, 2500 PPM IN DIET",inactive; negative
same,carcinogen call,"Species: RAT, Strain/Sex: F344/FEMALE, Route: ORAL, Dose: 0, 1250, 2500 PPM IN DIET, Dose: 0, 1250, 2500 PPM IN DIET",inactive; negative
same,carcinogen call,"Species: RAT, Strain/Sex: F344/MALE, Route: ORAL, Dose: 0, 1250, 2500 PPM IN DIET, Dose: 0, 1250, 2500 PPM IN DIET",inactive; negative
CN(C)CCC(c1ccc(Cl)cc1)c1ccccn1 (stereo not drawn),carcinogen call,"Species: MOUSE, Strain/Sex: B6C3F1/FEMALE, Route: GAVAGE, Dose: 0, 100, 200 MG/KG IN DEIONIZED WATER 5 D/WK FOR 103 WK, Dose: 0, 100, 200 MG/KG IN DEIONIZED WATER 5 D/WK FOR 103 WK",inactive; negative
same,carcinogen call,"Species: MOUSE, Strain/Sex: B6C3F1/MALE, Route: GAVAGE, Dose: 0, 25, 50 MG/KG IN DEIONIZED WATER 5 D/WK FOR 103 WK, Dose: 0, 25, 50 MG/KG IN DEIONIZED WATER 5 D/WK FOR 103 WK",inactive; negative
same,carcinogen call,"Species: RAT, Strain/Sex: F344/FEMALE, Route: GAVAGE, Dose: 0, 30, 60 MG/KG IN DEIONIZED WATER 5 D/WK FOR 103 WK, Dose: 0, 30, 60 MG/KG IN DEIONIZED WATER 5 D/WK FOR 103 WK",inactive; negative
same,carcinogen call,"Species: RAT, Strain/Sex: F344/FEMALE, Route: ORAL, Dose: 0, 1000 PPM IN DIET FOR 106 WK (STUDY DURATION: 130 WK)",inactive; negative
same,carcinogen call,"Species: RAT, Strain/Sex: F344/MALE, Route: GAVAGE, Dose: 0, 15, 30 MG/KG IN DEIONIZED WATER 5 D/WK FOR 103 WK, Dose: 0, 15, 30 MG/KG IN DEIONIZED WATER 5 D/WK FOR 103 WK",inactive; negative
same,carcinogen call,"Species: RAT, Strain/Sex: F344/MALE, Route: ORAL, Dose: 0, 1000 PPM IN DIET FOR 106 WK (STUDY DURATION: 130 WK)",inactive; negative

# Source: PubChem BioAssay AID1259411 (Chemical Carcinogenesis Research Information System (CCRIS), 2018)
